Reference: patent US20080249042A1, “All-Trans-Retinol: All-Trans-13,14-Dihydroretinol Saturase and Methods of Its Use” (UNIVERSITY OF WASHINGTON, priority 2004, published 2008)
Like-named read-outs stand apart in the source and are kept apart here.

What was measured:
Type in all cases: in vivo, mouse
[1] = Liver retinoids of Lrat-/- mice 3 h after gavage with all-trans-ROL palmitate; conditions: Lrat−/− (LRAT-deficient knockout), mouse, liver, oral, Lrat-/- mice, liver, 3 hr post-gavage, read-out: Level of liver retinoids 3 hr following gavage with ROL palmitate
From the text: (§1) Metabolism of Retinoids in Vivo. All animal experiments employed procedures approved by the University of Washington and conformed to recommendations of the American Veterinary Medical Association Panel on Euthanasia and recommendations of the Association of Research for Vision and Ophthalmology. Animals were maintained on a 12-h light and 12-h dark cycle. All manipulations were done under dim red or infrared light (>560 nm). Most experiments used 6-12-week-old mice. Lrat−/− mice were genotyped as described previously. Batten, et al. J. Biol. Chem. 279:10422-10432, 2004. Animals were maintained on a control chow diet up to 1 h prior to oral gavage. The appropriate amount of all-trans-ROL palmitate, all-trans-DROL, or all-trans-RA was dissolved in vegetable oil and administered by oral gavage 3 h prior to analysis.
Analysis of Retinoids. Liver (1 g) from retinoid gavaged or naive mice was homogenized in 2 ml of 137 mM NaCl, 2.7 mM KCl, and 10 mM sodium phosphate (pH 7.4) for 30 s using a Polytron homogenizer. 10 μl of 5 M NaOH was added to 3 ml of the ethanolic extract, and the nonpolar retinoids were extracted using 5 ml of hexane. The extraction was repeated, and the organic phases were combined, dried under vacuum, resuspended in hexane, and examined by normal phase HPLC using a normal phase column (Beckman Ultrasphere Si 5μ, 4.6×250 mm). The elution condition was an isocratic solvent system of 10% ethyl acetate in hexane (v/v) for 25 min at a flow rate of 1.4 ml/min at 20° C. with detection at 325 and 290 nm for the detection of nonpolar retinoids and 13,14-dihydroretinoids, respectively. The aqueous phase was acidified with 40 μl of 12 N HCl, and polar retinoids were extracted with 5 ml of hexane. The extraction was repeated, and the organic phases of the polar retinoid extractions were combined, dried, resuspended in solvent composed of 80% CH3CN, 10 mM ammonium acetate, 1% acetic acid, and examined by reverse phase HPLC. Analysis of polar retinoids from tissues was done by reverse phase HPLC using a narrowbore, 120-Å, 5-μm, 2.1×250 mm, Denali C18 column (Grace-Vydac, Hesperia, Calif.). The solvent system was composed of buffer A, 80% methanol, 20% 36 mM ammonium acetate (pH 4.7 adjusted with acetic acid), and buffer B, 100% methanol. The HPLC elution conditions were […], 100% buffer A for 40 min, 100% buffer B for 10 min, and 10 min equilibration in buffer A. The elution profiles of RA and DRA were monitored using an online diode array detector set at 350 and 290 nm, respectively. The peaks were identified based on their UV-visible spectra and/or coelution with synthetic or commercially available standards. The measured area of absorbance was converted to picomoles based on a calibration of the HPLC columns using a known amount of all-trans-RA or all-trans-ROL (Sigma) and all-trans-DROL or all-trans-DRA (synthetic standards). The extraction efficiency was monitored by spiking a tissue sample with [^3H]RA (PerkinElmer Life Sciences) and monitoring the radioactivity recovered from the HPLC column. In the case of liver samples the extraction efficiency was 95% or better. Mass spectrometry analyses of synthesized retinoids and of natural retinoids purified by HPLC were performed using a Kratos profile HV-3 direct probe mass spectrometer.

[2] = Liver retinoids of Lrat-/- mice 3 h after gavage with all-trans-RA; conditions: 3 h post-gavage
From the text: as §1
(§2) Analysis of Retinoids. Liver (1 g) from retinoid gavaged or naive mice was homogenized in 2 ml of 137 mM NaCl, 2.7 mM KCl, and 10 mM sodium phosphate (pH 7.4) for 30 s using a Polytron homogenizer. 10 μl of 5 M NaOH was added to 3 ml of the ethanolic extract, and the nonpolar retinoids were extracted using 5 ml of hexane. The extraction was repeated, and the organic phases were combined, dried under vacuum, resuspended in hexane, and examined by normal phase HPLC using a normal phase column (Beckman Ultrasphere Si 5μ, 4.6×250 mm). […] The HPLC elution conditions were […], 100% buffer A for 40 min, 100% buffer B for 10 min, and 10 min equilibration in buffer A. The elution profiles of RA and DRA were monitored using an online diode array detector set at 350 and 290 nm, respectively. […] The measured area of absorbance was converted to picomoles based on a calibration of the HPLC columns using a known amount of all-trans-RA or all-trans-ROL (Sigma) and all-trans-DROL or all-trans-DRA (synthetic standards). The extraction efficiency was monitored by spiking a tissue sample with [^3H]RA (PerkinElmer Life Sciences) and monitoring the radioactivity recovered from the HPLC column. […]

[3] = Liver retinoids of Lrat-/- mice 3 h after gavage with all-trans-DROL; conditions: 3 h post-gavage
From the text: as §1, §2

SMILES | concentration at 3 h ([1]; 10^5 IU/kg body weight all-trans-ROL palmitate) [nM] | concentration at 3 h ([1]; 10^6 IU/kg body weight all-trans-ROL palmitate) [nM] | Formation in liver after gavage with all-trans-RA [2] | Level in liver after gavage with all-trans-DROL [3]
CC1=C(/C=C/C(C)=C/C=C/C(C)CO)C(C)(C)CCC1 (single isomer, unassigned) [C19-ROL, (3E,5E,7E)-2,6-dimethyl-8-(2,6,6-trimethylcyclohex-1-enyl)octa-3,5,7-trien-1-ol] | 200 ± 8 | 1800 | no evidence | low levels
CC(C=CC1=C(C)C(=O)CCC1(C)C)=CC=CC(C)CC(=O)O (stereo not drawn) [all-trans-4-oxo-DRA] | – | – | no evidence | significant levels
